Source: ChEMBL document CHEMBL4828735, “Discovery of N-((3S,4S)-4-(3,4-Difluorophenyl)piperidin-3-yl)-2-fluoro-4-(1-methyl-1H-pyrazol-5-yl)benzamide (Hu7691), a Potent and Selective Akt Inhibitor That Enables Decrease of Cutaneous Toxicity” (J Med Chem, 2021)
Calls of active or inactive are those of the source. The calls are words filed in the database; no cut-off is given here.

Tests used:
Homo sapiens = species on record: Homo sapiens; test: Inhibition of PKA (unknown origin) at 0.5 uM
Cytochrome P450 3A4 = Cytochrome P450 3A4 (Homo sapiens, UniProt P08684); test: Inhibition of CYP3A4 (unknown origin); assay type: ADME
Chain of Cytochrome P450 3A4 (P08684 whole entry): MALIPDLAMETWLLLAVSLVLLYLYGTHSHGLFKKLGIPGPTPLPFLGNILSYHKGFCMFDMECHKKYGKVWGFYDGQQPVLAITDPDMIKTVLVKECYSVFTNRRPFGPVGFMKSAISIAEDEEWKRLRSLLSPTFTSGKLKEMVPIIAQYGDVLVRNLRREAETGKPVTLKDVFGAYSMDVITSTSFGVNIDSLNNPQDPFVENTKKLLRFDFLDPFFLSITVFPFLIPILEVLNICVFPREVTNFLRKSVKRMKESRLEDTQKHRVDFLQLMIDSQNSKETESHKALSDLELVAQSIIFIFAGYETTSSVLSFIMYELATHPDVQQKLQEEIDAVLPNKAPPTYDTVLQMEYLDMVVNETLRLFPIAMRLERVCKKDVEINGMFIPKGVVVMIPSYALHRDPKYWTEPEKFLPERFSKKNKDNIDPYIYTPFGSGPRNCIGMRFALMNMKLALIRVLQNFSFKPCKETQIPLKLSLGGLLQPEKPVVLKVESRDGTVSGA

[1] = Microsomal stability in human liver microsomes assessed as intrinsic clearance at 50 uM preincubated for 5 mins with NADPH followed by compound addition and measured upto 60 mins by LC-MS/MS analysis; assay type: ADME, Microsome; conditions: read-out: CLH
[2] = Microsomal stability in human liver microsomes assessed as half life at 50 uM preincubated for 5 mins with NADPH followed by compound addition and measured upto 60 mins by LC-MS/MS analysis; assay type: ADME, Microsome
[3] = Antiproliferative activity against human 95-D cells assessed as inhibition of cell growth incubated for 72 hrs by SRB method; assay type: functional, cell-based
HT-29 = test: Antiproliferative activity against human HT-29 cells assessed as inhibition of cell growth incubated for 72 hrs by SRB method; assay type: functional, cell-based; conditions: HT-29, 72 h
[4] = Toxicity in mouse assessed as death at 250 mg/kg; assay type: organism-based; conditions: in vivo
[5] = Toxicity in BALB/c nude mouse xenografted with human KHOS cells assessed as mortality at 12.5 to 50 mg/kg, ig administered once daily for 22 days; assay type: organism-based; conditions: in vivo, po, 528 h, dose 12.5-50 mg/kg, time 22 day
PC-3 = test: Antiproliferative activity against human PC3 cells assessed as inhibition of cell growth incubated for 72 hrs by SRB method; assay type: functional, cell-based; conditions: PC-3, 72 h
[6] = target: Cyclin-dependent kinase 2 (Homo sapiens, UniProt P24941); test: Inhibition of CDK2 (unknown origin)
[7] = Drug metabolism in po dosed Sprague-Dawley rat bile assessed as M3 metabolite formation measured upto 24 hrs by UPLC-TOF-MS/MS analysis; assay type: ADME, organism-based; conditions: in vivo
[8] = target: Ribosomal protein S6 kinase beta-1 (Homo sapiens, UniProt P23443); test: Inhibition of P70S6K (unknown origin)
Chain of Ribosomal protein S6 kinase beta-1 (P23443 whole entry): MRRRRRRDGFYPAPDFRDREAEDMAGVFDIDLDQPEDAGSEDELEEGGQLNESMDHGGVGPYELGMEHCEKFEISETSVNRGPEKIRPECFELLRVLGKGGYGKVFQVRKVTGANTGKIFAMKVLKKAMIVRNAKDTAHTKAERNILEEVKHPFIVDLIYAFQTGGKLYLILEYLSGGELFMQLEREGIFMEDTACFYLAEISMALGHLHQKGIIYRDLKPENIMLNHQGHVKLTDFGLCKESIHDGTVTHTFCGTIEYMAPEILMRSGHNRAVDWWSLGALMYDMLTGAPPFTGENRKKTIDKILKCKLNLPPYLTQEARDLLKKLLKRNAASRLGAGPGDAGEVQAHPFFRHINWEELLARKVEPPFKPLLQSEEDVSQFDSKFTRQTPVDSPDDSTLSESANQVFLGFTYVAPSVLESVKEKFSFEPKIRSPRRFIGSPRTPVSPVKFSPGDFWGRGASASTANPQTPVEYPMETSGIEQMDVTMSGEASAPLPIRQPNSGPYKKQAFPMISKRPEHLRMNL

U-251 = test: Antiproliferative activity against human U251 cells assessed as inhibition of cell growth incubated for 72 hrs by SRB method; assay type: functional, cell-based; conditions: U-251, 72 h
Cytochrome P450 2D6 = Cytochrome P450 2D6 (Homo sapiens, UniProt P10635); test: Inhibition of CYP2D6 (unknown origin); assay type: ADME
Chain of Cytochrome P450 2D6 (P10635 whole entry): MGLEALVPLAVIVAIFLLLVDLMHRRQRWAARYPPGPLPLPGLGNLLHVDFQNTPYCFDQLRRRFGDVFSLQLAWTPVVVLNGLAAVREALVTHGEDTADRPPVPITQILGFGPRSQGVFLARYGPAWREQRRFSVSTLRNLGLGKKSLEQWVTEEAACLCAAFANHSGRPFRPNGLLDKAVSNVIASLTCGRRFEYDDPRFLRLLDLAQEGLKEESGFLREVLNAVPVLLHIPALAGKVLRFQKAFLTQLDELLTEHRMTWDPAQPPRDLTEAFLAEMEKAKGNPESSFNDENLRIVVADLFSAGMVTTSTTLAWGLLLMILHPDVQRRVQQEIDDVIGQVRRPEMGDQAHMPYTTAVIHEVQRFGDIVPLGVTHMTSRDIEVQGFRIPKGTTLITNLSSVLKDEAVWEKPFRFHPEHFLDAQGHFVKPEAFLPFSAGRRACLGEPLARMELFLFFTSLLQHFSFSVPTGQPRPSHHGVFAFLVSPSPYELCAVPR

OS-RC-2 = test: Antiproliferative activity against human OS-RC-2 cells assessed as inhibition of cell growth incubated for 72 hrs by SRB method; assay type: functional, cell-based; conditions: OS-RC-2, 72 h
[9] = Toxicity in Beagle dog assessed as maximum toxicity dose; design: species or system Canis lupus familiaris; conditions: in vivo
[10] = target: Mitogen-activated protein kinase 9 (Homo sapiens, UniProt P45984); test: Inhibition of JNK2 (unknown origin)
Chain of Mitogen-activated protein kinase 9 (P45984 whole entry): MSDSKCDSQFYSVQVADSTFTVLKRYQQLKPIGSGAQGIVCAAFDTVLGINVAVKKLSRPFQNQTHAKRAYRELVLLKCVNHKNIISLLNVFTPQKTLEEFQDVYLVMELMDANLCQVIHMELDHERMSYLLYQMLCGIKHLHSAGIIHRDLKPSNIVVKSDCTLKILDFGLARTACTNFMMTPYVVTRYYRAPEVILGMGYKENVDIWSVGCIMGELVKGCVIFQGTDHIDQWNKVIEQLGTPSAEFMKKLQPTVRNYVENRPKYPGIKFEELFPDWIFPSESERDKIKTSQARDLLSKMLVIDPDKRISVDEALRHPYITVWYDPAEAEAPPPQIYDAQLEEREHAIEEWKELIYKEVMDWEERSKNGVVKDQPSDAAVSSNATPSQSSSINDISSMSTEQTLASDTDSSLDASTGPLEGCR

[11] = target: Protein kinase C theta type (Homo sapiens, UniProt Q04759); test: Inhibition of PKCtheta (unknown origin)
Chain of Protein kinase C theta type (Q04759 whole entry): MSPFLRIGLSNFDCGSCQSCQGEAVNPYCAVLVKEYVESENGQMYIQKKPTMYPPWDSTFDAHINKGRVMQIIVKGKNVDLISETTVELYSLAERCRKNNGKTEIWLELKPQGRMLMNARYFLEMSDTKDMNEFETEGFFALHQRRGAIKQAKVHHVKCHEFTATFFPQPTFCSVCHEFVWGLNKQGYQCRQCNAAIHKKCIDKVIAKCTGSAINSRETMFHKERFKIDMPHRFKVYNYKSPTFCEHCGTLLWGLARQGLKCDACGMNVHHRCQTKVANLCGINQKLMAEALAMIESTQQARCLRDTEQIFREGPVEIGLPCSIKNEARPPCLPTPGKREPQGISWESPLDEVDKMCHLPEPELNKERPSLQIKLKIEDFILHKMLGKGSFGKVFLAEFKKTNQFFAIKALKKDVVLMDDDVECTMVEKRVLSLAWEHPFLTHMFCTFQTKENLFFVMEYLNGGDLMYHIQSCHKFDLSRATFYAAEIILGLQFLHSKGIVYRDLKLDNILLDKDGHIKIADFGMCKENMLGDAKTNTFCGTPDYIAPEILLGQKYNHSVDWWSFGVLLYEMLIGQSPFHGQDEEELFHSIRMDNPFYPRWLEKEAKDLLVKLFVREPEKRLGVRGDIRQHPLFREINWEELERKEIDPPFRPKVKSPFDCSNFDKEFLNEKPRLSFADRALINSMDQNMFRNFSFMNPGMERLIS

OVCAR-8 = test: Antiproliferative activity against human OVCAR-8 cells assessed as inhibition of cell growth incubated for 72 hrs by SRB method; assay type: functional, cell-based; conditions: OVCAR-8, 72 h
[12] = AUC(0 to infinity) in Sprague-Dawley rat at 15 mg/kg, ig measured upto 72 hrs by LC-MS/MS analysis; assay type: ADME, organism-based; design: route […], dose 15 mg/kg, time <=72; conditions: in vivo, po
[13] = Toxicity in Sprague-Dawley rat assessed as effect on jejunum at 25 to 75 mg/kg administered daily for 4 weeks by histopathological analysis; assay type: organism-based; conditions: in vivo, 672 h, dose 25-75 mg/kg
[14] = Toxicity in mouse assessed as reduction in activity at 150 mg/kg; assay type: organism-based; conditions: in vivo
HepG2 = test: Antiproliferative activity against human HepG2 cells assessed as inhibition of cell growth incubated for 72 hrs by SRB method; assay type: functional, cell-based; conditions: HepG2, 72 h
[15] = AUC(0 to t) in Beagle dog at 20 mg/kg, ig measured upto 96 hrs by LC-MS/MS analysis; assay type: ADME, organism-based, Canis lupus familiaris; design: route […], dose 20 mg/kg, time <=96; conditions: in vivo, po
[16] = Drug metabolism in po dosed Sprague-Dawley rat bile assessed as M5 metabolite formation measured upto 24 hrs by UPLC-TOF-MS/MS analysis; assay type: ADME, organism-based; conditions: in vivo
[17] = AUC(0 to infinity) in Beagle dog at 20 mg/kg, ig measured upto 96 hrs by LC-MS/MS analysis; assay type: ADME, organism-based, Canis lupus familiaris; design: route […], dose 20 mg/kg, time <=96; conditions: in vivo, po
[18] = Toxicity in BALB/c nude mouse xenografted with human 786-0 cells assessed as change in body weight at 12.5 to 50 mg/kg, ig administered once daily for 22 days; assay type: organism-based; conditions: in vivo, po, 528 h, dose 12.5-50 mg/kg, time 22 day
[19] = Microsomal stability in rat liver microsomes assessed as half life at 50 uM preincubated for 5 mins with NADPH followed by compound addition and measured upto 60 mins by LC-MS/MS analysis; assay type: ADME, Microsome
[20] = Cmax in Sprague-Dawley rat at 2 mg/kg, iv measured upto 24 hrs by LC-MS/MS analysis; assay type: ADME, organism-based; design: route intravenous, dose 2 mg/kg, time <=24; conditions: in vivo
[21] = Toxicity in mouse assessed as brownish watery stool at 150 mg/kg; assay type: organism-based; conditions: in vivo
[22] = Drug metabolism in po dosed Sprague-Dawley rat urine assessed as M2 metabolite formation measured upto 72 hrs by UPLC-TOF-MS/MS analysis; assay type: ADME, organism-based; conditions: in vivo
KHOS/NP [23] = test: Antiproliferative activity against human KHOS cells assessed as inhibition of cell growth incubated for 72 hrs by SRB method; assay type: functional, cell-based
[24] = Toxicity in Sprague-Dawley rat assessed as effect on thyroid at 25 to 75 mg/kg administered daily for 4 weeks by histopathological analysis; assay type: organism-based; conditions: in vivo, 672 h, dose 25-75 mg/kg
[25] = Toxicity in mouse assessed as weight loss at 150 mg/kg; assay type: organism-based; conditions: in vivo
[26] = Half life in Beagle dog at 20 mg/kg, ig measured upto 96 hrs by LC-MS/MS analysis; assay type: ADME, organism-based, Canis lupus familiaris; conditions: in vivo, po
KHOS/NP [27] = test: Antitumor activity against human KHOS cells xenografted in dosed BALB/c nude mouse assessed as tumor growth inhibition at 25 mg/kg, ig administered once daily for 22 days; assay type: functional, organism-based; conditions: time 22.0 day
[28] = Microsomal stability in mouse liver microsomes assessed as intrinsic clearance at 50 uM preincubated for 5 mins with NADPH followed by compound addition and measured upto 60 mins by LC-MS/MS analysis; assay type: ADME, Microsome; conditions: read-out: CLH
786-0 [29] = test: Antitumor activity against human 786-0 cells xenografted in dosed BALB/c nude mouse assessed as tumor growth inhibition at 12.5 to 50 mg/kg, ig administered once daily for 22 days; assay type: functional; conditions: dose 12.5-50 mg/kg, time 22 day
[30] = target: RAC-alpha serine/threonine-protein kinase (Homo sapiens, UniProt P31749); test: Inhibition of N-terminal GST-tagged human AKT1 (104 to 408 residues) expressed in baculovirus infected Sf21 cells incubated for 1 hr in presence of ATP by mobility shift assay
Chain of RAC-alpha serine/threonine-protein kinase (P31749 whole entry, the tested form may be a part): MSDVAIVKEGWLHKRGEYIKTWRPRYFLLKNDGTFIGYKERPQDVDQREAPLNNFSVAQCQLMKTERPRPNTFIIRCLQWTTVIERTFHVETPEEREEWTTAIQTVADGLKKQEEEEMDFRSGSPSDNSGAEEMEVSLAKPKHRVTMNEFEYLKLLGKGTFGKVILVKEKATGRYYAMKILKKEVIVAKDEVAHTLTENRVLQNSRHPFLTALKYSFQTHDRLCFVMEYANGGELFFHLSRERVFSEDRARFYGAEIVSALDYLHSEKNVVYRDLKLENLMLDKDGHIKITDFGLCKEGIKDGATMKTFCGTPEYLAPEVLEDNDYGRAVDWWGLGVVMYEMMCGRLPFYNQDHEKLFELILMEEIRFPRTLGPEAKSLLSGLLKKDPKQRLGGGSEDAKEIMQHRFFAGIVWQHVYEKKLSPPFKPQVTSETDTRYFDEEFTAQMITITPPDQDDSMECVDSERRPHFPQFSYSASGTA

786-0 [31] = test: Antitumor activity against human 786-0 cells xenografted in ig dosed BALB/c nude mouse assessed as tumor growth inhibition administered once daily for 22 days; assay type: functional, organism-based; conditions: dose 12.5-50 mg/kg, time 22.0 day
[32] = Toxicity in Sprague-Dawley rat assessed as appearance of scab on back skin at 25 to 75 mg/kg administered daily for 4 weeks; assay type: organism-based; conditions: in vivo, 672 h, dose 25-75 mg/kg
[33] = Drug metabolism in po dosed Sprague-Dawley rat feces assessed as M5 metabolite formation measured upto 24 hrs by UPLC-TOF-MS/MS analysis; assay type: ADME, organism-based; conditions: in vivo

Cl.Cn1nccc1-c1ccc(C(=O)N[C@@H]2CNCC[C@H]2c2ccc(F)c(F)c2)c(F)c1
inhibition (Homo sapiens): Active
IC50 (Cytochrome P450 3A4): > 100 µM
microsomal CLint at 50 µM [1]: 1.4 µL/min/mg
half-life at 50 µM [2]: 16.2 h
IC50 [3]: 1.03 µM
IC50 (HT-29): 20.3 µM
Activity [4]: Toxic
Activity [5]: Non-Toxic
IC50 (PC-3): 8.74 µM
IC50 [6]: > 10 µM
Drug metabolism [7]: Metabolite_Detected
IC50 [8]: 0.229 µM
IC50 (U-251): 6.53 µM
IC50 (Cytochrome P450 2D6): > 100 µM
IC50 (OS-RC-2): 9.9 µM
MTD [9]: 100 mg/kg
IC50 [10]: > 10 µM
IC50 [11]: 0.629 µM
IC50 (OVCAR-8): 3.52 µM
AUC(0-inf) [12]: 2820 ng·h/mL
Activity [13]: Non-Toxic
Activity [14]: Toxic
IC50 (HepG2): 3.6 µM
AUC(0-t) at 96 h [15]: 33300 ng·h/mL
Drug metabolism [16]: Metabolite_Detected
AUC(0-inf) [17]: 36300 ng·h/mL
Activity [18]: Non-Toxic
half-life at 50 µM [19]: 1.16 h
Cmax [20]: 208 ng/mL
Activity [21]: Toxic
Drug metabolism [22]: Metabolite_Detected
IC50 (KHOS/NP [23]): 7.47 µM
Activity [24]: Non-Toxic
Activity [25]: Toxic
half-life [26]: 16.7 h
Activity (KHOS/NP [27]): Active
microsomal CLint at 50 µM [28]: 3.4 µL/min/mg
TGI (786-0 [29]): 70%
IC50 [30]: 0.004 µM
Activity (786-0 [31]): Dose-Dependent Effect
Activity [32]: Non-Toxic
Drug metabolism [33]: Metabolite_Detected
